Measurements taken from ChEMBL document CHEMBL1201862, “PubChem BioAssay data set” (2004).
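All cell lines were grown in 96-well plates and treated with compound for 48 hours. GI50 marks 50% less growth.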 Activity calls are given as the source filed them. No stated cut-off is given here; in the data, active = GI50 up to about 1.1 µM and inactive = higher.

Columns and labels:
Assay in all cases: NCI anticancer screen, dose series, 48 h
[1] = test system: SK-MEL-28
[2] = test system: ACHN
[3] = test system: HCC 2998
[4] = test system: A498
[5] = test system: KM12
[6] = test system: SK-OV-3
[7] = test system: HOP-62
[8] = test system: OVCAR-3
[9] = test system: SF-295
[10] = test system: 786-0
[11] = test system: UACC-62
[12] = test system: LOX IMVI
[13] = test system: OVCAR-5
[14] = test system: HOP-92
[15] = test system: TK-10
[16] = test system: HCT-116
[17] = test system: M14

SMILES	GI50 [1]	GI50 [2]	GI50 [3]	GI50 [4]	GI50 [5]	GI50 [6]	GI50 [7]	GI50 [8]	GI50 [9]	GI50 [10]	GI50 [11]	GI50 [12]	GI50 [13]	GI50 [14]	GI50 [15]	GI50 [16]	GI50 [17]
CCCCCN(CCCCC)C(=O)[C@@H](CCC(=O)O)NC(=O)c1cc2ccccc2[nH]1	21.4 µM (inactive)	30.5 µM (inactive)	34 µM (inactive)	> 100 µM (inactive)	39.3 µM (inactive)	65.2 µM (inactive)	32.2 µM (inactive)	33.9 µM (inactive)	33.9 µM (inactive)	46.5 µM (inactive)	20.7 µM (inactive)	59.3 µM (inactive)	> 100 µM (inactive)	25.6 µM (inactive)	46.6 µM (inactive)	17.9 µM (inactive)	23.2 µM (inactive)
CCCCC(C)C(OC(=O)CC(CC(=O)O)C(=O)O)C(CC(C)CC(O)CCCCC(O)CC(O)C(C)N)OC(=O)CC(CC(=O)O)C(=O)O (centres undefined)	> 100 µM (inactive)	> 100 µM (inactive)	> 100 µM (inactive)	> 100 µM (inactive)	> 100 µM (inactive)	> 100 µM (inactive)	> 100 µM (inactive)	> 100 µM (inactive)	> 100 µM (inactive)	> 100 µM (inactive)	> 100 µM (inactive)	> 100 µM (inactive)	> 100 µM (inactive)	> 65.8 µM (inactive)	> 100 µM (inactive)	> 100 µM (inactive)	> 100 µM (inactive)
O=C1CC(=O)N(CCc2ccccc2)S(=O)(=O)N1CCc1ccccc1	28.1 µM (inactive)	35.9 µM (inactive)	86.9 µM (inactive)	16.6 µM (inactive)	16.2 µM (inactive)	24.3 µM (inactive)	36.2 µM (inactive)	16.9 µM (inactive)	16.9 µM (inactive)	17.1 µM (inactive)	25.9 µM (inactive)	1.91 µM (inactive)	22.7 µM (inactive)	16.6 µM (inactive)	36.6 µM (inactive)	28.7 µM (inactive)	40.6 µM (inactive)
NNC(=O)/C(=C/c1ccc(Cl)cc1Cl)NC(=O)c1ccccc1	> 100 µM (inactive)	> 100 µM (inactive)	> 100 µM (inactive)	> 100 µM (inactive)	> 100 µM (inactive)	> 100 µM (inactive)	> 100 µM (inactive)	> 100 µM (inactive)	> 100 µM (inactive)	> 100 µM (inactive)	41 µM (inactive)	> 100 µM (inactive)	> 100 µM (inactive)	> 100 µM (inactive)	> 100 µM (inactive)	> 100 µM (inactive)	> 100 µM (inactive)
CSCCC(C(=O)O)N(CC1(O)OCC(O)C(O)C1O)N=O (centres undefined)	> 100 µM (inactive)	> 100 µM (inactive)	> 100 µM (inactive)	> 100 µM (inactive)	> 100 µM (inactive)	> 100 µM (inactive)	> 100 µM (inactive)	> 100 µM (inactive)		> 100 µM (inactive)	> 100 µM (inactive)	> 100 µM (inactive)	> 100 µM (inactive)	> 100 µM (inactive)	> 100 µM (inactive)	> 100 µM (inactive)	> 100 µM (inactive)
CS(=O)(=O)OCCN1CCN(C(=O)c2cccc3c(Nc4ccc(S(=O)(=O)N=C(N)N)cc4)c4ccccc4nc23)CC1	> 100 µM (inactive)	> 100 µM (inactive)	> 100 µM (inactive)	> 100 µM (inactive)	> 100 µM (inactive)	> 100 µM (inactive)	> 100 µM (inactive)	> 100 µM (inactive)	> 100 µM (inactive)	> 100 µM (inactive)	> 100 µM (inactive)		> 100 µM (inactive)	> 100 µM (inactive)	> 100 µM (inactive)	> 100 µM (inactive)	> 100 µM (inactive)
O=c1ncccn1[C@@H]1O[C@H](CO)[C@H](O)C1O (some centres undefined)	> 100 µM (inactive)	> 100 µM (inactive)	40.9 µM (inactive)	> 100 µM (inactive)	> 100 µM (inactive)	> 100 µM (inactive)	68.2 µM (inactive)	> 100 µM (inactive)	> 100 µM (inactive)	> 78 µM (inactive)	> 99.5 µM (inactive)	> 61.8 µM (inactive)	> 100 µM (inactive)	> 71.3 µM (inactive)	> 100 µM (inactive)	> 70.8 µM (inactive)	> 100 µM (inactive)
COC(=O)C1=C(C(=O)OC)N(C(C)C)[C@H]2C(C(=O)OC)=C(C(=O)OC)N(C(C)C)[C@@H]12	> 100 µM (inactive)	> 100 µM (inactive)		> 100 µM (inactive)	> 100 µM (inactive)	> 100 µM (inactive)	> 100 µM (inactive)	95.1 µM (inactive)	> 100 µM (inactive)	> 100 µM (inactive)	> 100 µM (inactive)	> 100 µM (inactive)	> 100 µM (inactive)	> 100 µM (inactive)	> 100 µM (inactive)	> 100 µM (inactive)	> 100 µM (inactive)
CN1C(=O)CC(c2cccc(C3CC(=O)N(C)C3=O)n2)C1=O (centres undefined)	> 100 µM (inactive)	> 100 µM (inactive)	> 100 µM (inactive)	> 100 µM (inactive)	> 100 µM (inactive)	> 100 µM (inactive)	> 100 µM (inactive)	> 100 µM (inactive)	> 100 µM (inactive)	> 100 µM (inactive)	> 100 µM (inactive)	> 100 µM (inactive)	> 100 µM (inactive)	> 100 µM (inactive)	> 100 µM (inactive)	> 100 µM (inactive)	> 100 µM (inactive)
[O-][Cl+3]([O-])([O-])[O-].c1ccc(-c2csc3c4ccccc4c4ccccc4[n+]23)cc1	2.7 µM (inactive)	10.2 µM (inactive)	1.54 µM (inactive)	14.8 µM (inactive)	1.47 µM (inactive)	13.9 µM (inactive)	7.1 µM (inactive)	0.897 µM (active)	1.14 µM (inactive)	4.85 µM (inactive)	1.88 µM (inactive)	4.58 µM (inactive)	14.3 µM (inactive)	4.41 µM (inactive)	13.6 µM (inactive)	2.32 µM (inactive)	9.48 µM (inactive)
CC(=O)NNc1nc(C)c(C(/C=C/c2ccc(/C=C/C(=N\NC(=O)c3ccncc3)c3sc(NNC(C)=O)nc3C)cc2)=N/NC(=O)c2ccncc2)s1	> 100 µM (inactive)	> 100 µM (inactive)	> 100 µM (inactive)	> 100 µM (inactive)	> 100 µM (inactive)	> 100 µM (inactive)	> 100 µM (inactive)	> 100 µM (inactive)	> 100 µM (inactive)	> 100 µM (inactive)	> 100 µM (inactive)	> 100 µM (inactive)	> 100 µM (inactive)	54 µM (inactive)	> 100 µM (inactive)	> 100 µM (inactive)	41.7 µM (inactive)
CCOc1ccccc1N1C(=O)C(=O)C(c2nc3ccccc3o2)C(=O)C1=O	> 100 µM (inactive)	28.3 µM (inactive)	> 100 µM (inactive)	48.6 µM (inactive)		28.6 µM (inactive)	> 100 µM (inactive)	> 100 µM (inactive)	20.8 µM (inactive)	21.2 µM (inactive)	> 100 µM (inactive)	> 100 µM (inactive)	> 100 µM (inactive)	> 100 µM (inactive)	39.7 µM (inactive)	70.5 µM (inactive)	> 100 µM (inactive)
CC(=O)Nc1[nH]c(=O)[nH]c(=O)c1N(C(C)=O)C(C)=O	> 100 µM (inactive)	> 100 µM (inactive)	> 100 µM (inactive)	> 100 µM (inactive)	> 100 µM (inactive)			> 100 µM (inactive)	> 100 µM (inactive)	> 100 µM (inactive)	> 100 µM (inactive)	> 100 µM (inactive)	> 100 µM (inactive)	> 100 µM (inactive)		> 100 µM (inactive)	> 100 µM (inactive)
C=C(C)C1CC=C(C)C(O)([C@@]2(O)C[C@H](C(=C)C)CC=C2C)C1 (some centres undefined)	28.3 µM (inactive)	20.3 µM (inactive)	16.4 µM (inactive)	23.8 µM (inactive)	19.3 µM (inactive)	27.2 µM (inactive)	16.9 µM (inactive)	13.4 µM (inactive)	18.9 µM (inactive)	16.8 µM (inactive)	19.8 µM (inactive)	13.9 µM (inactive)	24.5 µM (inactive)	12.9 µM (inactive)	33.3 µM (inactive)	17.6 µM (inactive)	16.4 µM (inactive)
C=C(C)C1C/C=C(/C)CCCC2(CCC3=C(CC(C(=C)C)C/C=C(/C)CCC3)O2)C(=O)C1 (centres undefined)	> 100 µM (inactive)	> 100 µM (inactive)	> 100 µM (inactive)	> 100 µM (inactive)	> 100 µM (inactive)	> 100 µM (inactive)	> 100 µM (inactive)		> 100 µM (inactive)	> 100 µM (inactive)	> 100 µM (inactive)	> 100 µM (inactive)		> 100 µM (inactive)	> 100 µM (inactive)	54.7 µM (inactive)	> 100 µM (inactive)
O=C(O)CN(c1ccccc1)S(=O)(=O)c1ccc([N+](=O)[O-])cc1		> 100 µM (inactive)		> 100 µM (inactive)	> 100 µM (inactive)	> 100 µM (inactive)		> 100 µM (inactive)	> 100 µM (inactive)	> 100 µM (inactive)	> 100 µM (inactive)	> 100 µM (inactive)	> 100 µM (inactive)	> 100 µM (inactive)	> 100 µM (inactive)		> 100 µM (inactive)
